Laboratory results taken from article PMC6514962, “The Impact of O-Glycosylation on Cyanidin Interaction with RBCs and HMEC-1 Cells—Structure–Activity Relationships” (International Journal of Molecular Sciences, 2019).

Assays:
[1] = test system: HMEC-1 cells; assay: viability of HMEC-1 cells, XTT and Hoechst 33342 assays; format: cell-based, human; settings: 48 h; for cytotoxicity: HMEC-1, 10-100 µM; for viability of endothelial cells compared with the control: HMEC-1, 100 µM, p < 0.01, both methods
Method: (§1) The effect of compounds on the viability of HMEC-1 cells was assessed by XTT (2,3-bis-(2-methoxy-4-nitro-5-sulfophenyl)-2H-tetrazolium-5-carboxanilide) and Hoechst 33342 assays. Briefly, 5 × 10^3 cells in 100 µL of the appropriate growth medium were plated in 96-well flat bottom clear microplates and cultured for 24 h at 37 °C in a humidified 5% CO2 incubator to ensure their logarithmic growth. […] A corresponding volume of 0.5% ethanol was added to the control wells. In parallel experiments, some of the cells were additionally incubated with doxorubicin in a concentration of 0.5 µM (a cytotoxic compound usually used as an anticancer drug). After incubation, the medium in the wells was aspirated, the cell monolayers were rinsed twice with pre-warmed (37 °C) PBS, and the cells were allowed to grow for an additional 48 h. After incubation, during the XTT assay, medium was removed by aspiration and 50 µL of XTT/PMS solution (10 µL of 10 mM PMS + 4 mL of 4 mg/mL XTT solution) was added to cells. Cells were incubated in the dark for 2 h (37 °C, 5% CO2). After incubation, the absorbance of the samples was read at 450 nm and 690 nm using an Epoch Microplate Spectrophotometer, BioTek Instruments, Inc., Winooski, Vermont, USA. The fraction of surviving treated cells was presented as a percentage of viable control (untreated) cells taken as 100%. In the Hoechst test, after incubation of cells with cyanidin and its glycosides, the medium was removed and the cells were washed twice with HBSS buffer containing 1% bovine serum albumin and frozen at −70 °C. Next, the cells were thawed at room temperature (RT) and re-frozen after the addition of […] of distilled water. After thawing the plates at room temperature, 100 µL of HVAB solution (0.5% Hoechst in TNE solution containing 2 M NaCl, 1 mM EDTA, 10 mM Tris-HCl, pH 7.4) were added to each well. Next, cells were incubated for 15 min in the dark at 37 °C, mixed, and the fluorescence intensity of the probe was measured at 355 and 460 nm for excitation and emission, respectively (Fluoroskan Ascent FL, Thermo Scientific, Waltham, MA, USA). Cell viability was calculated as the ratio of the fluorescence intensity of the Hoechst 33342 probe for compound-modified to -unmodified cells and expressed as a percentage.

[2] = test system: HMEC-1 cells; assay: intracellular ROS generation in non-oxidized cells, H2DCF-DA assay; format: cell-based, human
Method: (§2) The impact of investigated compounds on the level of intracellular reactive oxygen species and their ability to inhibit AAPH-stimulated intracellular ROS generation were assessed using a H2DCF-DA probe. Non-fluorescent H2DCF-DA is hydrolyzed intracellularly to form 2′,7′-dichlorodihydrofluorescein, which is oxidized by reactive oxygen species to the fluorescent 2′,7′-dichlorofluorescein. ROS production was estimated in HMEC-1 cells seeded on 96-well plates (5 × 10^3/well) and cultured for 12 to 24 h. After that time, the compounds were added at appropriate concentrations. The incubation was continued for another 24 h and 48 h at 37 °C under 5% CO2. In the case of AAPH-simulated ROS generation, the cells were incubated with extracts for 24 h. After incubation, the AAPH dissolved in culture medium was added to each well at the final concentration of 7.5 mM and incubated for the next 24 h. After that time, the cell monolayers were rinsed with HBSS containing 1% albumin and 5 µM of the fluorescence probe, 2′,7′-dichlorodihydrofluorescein diacetate (H2DCF-DA), was added. Immediately and after 0.5 h, 1 h, and 2 h incubation in the dark in standard conditions, the fluorescence was measured at λex = 485 nm and λem = 538 nm.
(§3) In the next step, DNA content was determined. For this purpose, after measurements, the cells were frozen at −70 °C. Next, the cells were thawed and re-frozen after the addition of […] of distilled water/well. Then, the cells were thawed again. After that, 5 µM of RNase was added to each well and incubated for 30 min in the dark at 37 °C. Next, 50 µL of 2.5 µM propidium iodide was added to the cells and incubated for 5 min in the same conditions. The fluorescence intensity of PI was measured at λex = 355 nm and λem = 620 nm. The rate of ROS generation was calculated according to the formula: (1) Rate of ROS=IFe1/IFe2/IFc1/IFc2⋅100% where IFe1 and IFe2 are fluorescence intensities of H2DCF-DA and PI in compound-modified or compound-modified and AAPH-oxidized cells, and IFc1 and IFc2 are fluorescence intensities of H2DCF-DA and PI in control or AAPH-oxidized control cells.

[3] = test system: HMEC-1 cells; assay: AAPH-stimulated intracellular ROS generation, H2DCF-DA assay; format: cell-based, human; settings: for inhibitory activity on AAPH-induced intracellular ROS: HMEC-1, throughout the used range of concentrations (50-100 µM); for intracellular ROS level in comparison with control AAPH-oxidized cells: HMEC-1 pretreated 24 h with 50 to 75 µM, then AAPH 24 h
Method: as §2, §3

[4] = test system: erythrocytes (RBCs); assay: SEM assay of the shapes of erythrocytes; format: cell-based, pig; settings: 100 µM, 1 h
Method: The effect of compounds on the shape of erythrocytes was investigated using a scanning electron microscope (SEM). […] Hematocrit concentration of the erythrocytes in the modification solution was 2%, the modification lasting 1 h at 37 °C. After modification, the erythrocytes where fixed for 48 h in a 2.5% solution of glutaraldehyde. After that, the preparations were washed in phosphate buffer for 20 min, and then the material was dehydrated in a rising series of acetone concentrations (30%, 50%, 60%, 70%, 80%, 90%, and 100%). Each sample was washed for 15 min in an appropriate concentration, the material remaining in pure acetone for 30 min. Next, the erythrocytes were dried for 12 h at room temperature. Erythrocytes thus prepared were deposited on object stages and subjected to x-ray microanalysis by means of an x-ray analyzer, Bruker AXS Quantax, collaborating with the ESPRIT ver. 1.8.2. software. Next, the samples were coated with gold using a Scancoat 6 (Edwards, London) sprinkler. The material ultrastructure was analyzed using a scanning microscope (EVO LS15 ZEISS) with an SE1 detector, under high vacuum and accelerating voltage, acceleration voltage (EHT) = 20 kV. Individual forms of erythrocyte cells were ascribed morphological indices according to the Bessis scale, which for stomatocytes assume negative values from −1 to −4, and for echinocytes from 1 to 4.

[5] = viability of HMEC-1 cells, XTT and Hoechst 33342 assays; format: cell-based, human; settings: human, HMEC-1 cells, HMEC-1, 100 µM, % of control, read-out: cell viability (XTT and Hoechst assay)
Method: as §1

[6] = test system: erythrocytes (RBCs); assay: protection of erythrocytes against AAPH-induced hemolysis; format: cell-based, pig; settings: for level of RBCs' protection relative to CR and CDG: compared with CR and CDG
Method: Upon removal from plasma, the erythrocytes (RBCs) were washed four times in phosphate solution (pH 7.4) and then incubated in the same solution, but containing appropriate amounts of the compounds studied. The modification was conducted at 37 °C for 1 h, each 1 mL sample containing an RBC suspension of 1.2% hematocrit and 1 to 100 µM of compounds, stirred continuously. After the modification, 2 mL of phosphate buffer were added and samples were centrifuged, and the supernatant assayed for hemoglobin content using a spectrophotometer (Specord 40, Analytik Jena) at the 540 nm wavelength. To test the effect of compounds on hemolysis inducted by AAPH, RBCs were pre-incubated with varying concentrations of compounds at 37 °C for 1 h. Hemolysis of RBCs was carried out by mixing 3% suspension of RBCs (unmodified or modified by 2 to 20 µM of the compounds) in phosphate buffer with AAPH solution (final concentration 120 mM). This reaction mixture was incubated for 3 h at 37 °C. After incubation, samples were centrifuged for 15 min (2000× g, RT). The extent of hemolysis was determined spectrophotometrically by measuring the absorbance of the supernatant at 540 nm. Hemoglobin concentration in the supernatant, expressed as a percentage of the hemoglobin concentration in the supernatant of totally hemolyzed cells, was assumed as the measure of the extent of hemolysis.

[7] = test system: MCF-7, HuH-7, HepG2, Caco-2, and HUVEC; design: method as in doi:10.3136/fstr.17.515; settings: cited from earlier work
[8] = test system: renal cell carcinoma; design: method as in PMID 29742507; settings: cited from earlier work
[9] = test system: MCF-7 breast cancer cells; settings: cited from earlier work
[10] = test system: RAW 264.7 cells; design: method as in doi:10.1007/s10068-014-0279-x; settings: 100 to 200 µg/mL; cited from earlier work
[11] = test system: HER2 (breast cancer), GBM (glioblastoma), and human monocytic leukemia; design: method as in PMID 15080622, PMID 24312561, PMID 28867321; settings: cancer cells, interrupting the G2-M phase; cited from earlier work
[12] = design: method as in doi:10.1007/s10068-014-0279-x; settings: cited from earlier work
[13] = test system: macrophages; design: method as in doi:10.1007/s10068-014-0279-x; settings: cited from earlier work
[14] = test system: HL-60 cells; design: method as in PMID 17360708; settings: by the accumulation of peroxides; cited from earlier work
[15] = test system: human peripheral blood mononuclear cells; design: method as in PMID 17360708; settings: cited from earlier work

| Compound | cytotoxicity [1] | intracellular ROS level compared with control cells ([2]; HMEC-1, 24 h, 50-100 µM) | intracellular ROS level compared with control cells ([2]; HMEC-1, 48 h, 50-100 µM) | inhibitory activity on AAPH-induced intracellular ROS [3] | intracellular ROS level in comparison with control AAPH-oxidized cells [3] | morphological index of induced echinocytes (Bessis scale) [4] | further results |
| --- | --- | --- | --- | --- | --- | --- | --- |
| OCC1OC(Oc2cc3c(OC4OC(CO)C(O)C(O)C4O)cc(O)cc3[o+]c2-c2ccc(O)c(O)c2)C(O)C(O)C1O (stereo not drawn) [CDG, cyanidin-3-5-O-diglucoside] | no cytotoxicity | significant decrease | decreased | strong inhibitory action | significant decrease | +1 | protective effect against AAPH-induced oxidative stress ([3]; HMEC-1, 100 µM): protective effect |
| Oc1cc(O)c2cc(OC3OCC(O)C(O)C3O)c(-c3ccc(O)c(O)c3)[o+]c2c1 (stereo not drawn) [CA, cyanidin-3-O-arabinoside] | – | significant decrease | decreased | – | significant decrease | +2 | viability at 48 h, 100 µM [5]: 60 to 85%; viability of endothelial cells compared with the control [1]: decreased the viability; level of RBCs' protection relative to CR and CDG [6]: better protection |
| CC(C)(N=NC(C)(C)C(=N)N)C(=N)N.Cl.Cl [AAPH, 2,2′-azobis(2-amidinopropane) dihydrochloride, reference compound] | – | – | – | – | – | – | increase in the ROS level ([3]; HMEC-1, 24 h incubation with AAPH (7.5 mM), 37 °C): about 60% |
| Oc1cc(O)c2cc(O)c(-c3ccc(O)c(O)c3)[o+]c2c1 [C, Cyanidin] | – | significant decrease | decreased | does not cause any inhibitory activity | – | +4 | viability at 48 h, 100 µM [5]: 65 to 80%; viability of endothelial cells compared with the control [1]: decreased the viability; antioxidant activity compared with CG, CA, and CGA [6]: did not observe any significant differences; intracellular ROS levels [7]: decreased; percentage of apoptotic cells ([8]; 48 h at 0, 25, 50, and 100 μM): gradually increased; cell cycle arrest ([8]; independently of the concentration): induced cell cycle arrest; cell proliferation and apoptosis [9]: inhibition of cell proliferation and increased apoptosis |
| OCC1OC(Oc2cc3c(O)cc(O)cc3[o+]c2-c2ccc(O)c(O)c2)C(O)C(O)C1O (stereo not drawn) [CGA, cyanidin-3-O-galactoside] | – | – | decreased | – | – | – | – |
| OCC1OC(Oc2cc3c(O)cc(O)cc3[o+]c2-c2ccc(O)c(O)c2)C(O)C(O)C1O (stereo not drawn) [CG, cyanidin-3-O-glucoside] | no cytotoxicity | significant decrease | – | – | significant decrease | – | intracellular ROS level compared with control cells ([2]; HMEC-1, 48 h, 100 µM): no significant difference; level of RBCs' protection relative to CR and CDG [6]: better protection; cell viability compared with control cells [10]: significantly decreased; intracellular ROS levels [7]: did not; cytotoxic effect (apoptosis) [11]: inducing apoptosis; nitrite scavenging activity compared with CR [12]: higher; protective effect against H2O2-induced cytotoxicity compared with CR [13]: stronger protective effect |
| CC1OC(OCC2OC(Oc3cc4c(O)cc(O)cc4[o+]c3-c3ccc(O)c(O)c3)C(O)C(O)C2O)C(O)C(O)C1O (stereo not drawn) [CR, cyanidin-3-O-rutinoside] | no cytotoxicity | did not differ | no significant difference | does not cause any inhibitory activity | – | +1 | cell viability compared with control cells [10]: significantly decreased; apoptosis [14]: induce apoptosis; toxicity [15]: relatively low toxicity |
